We go through one compound from publication PMC7053198 (Theranostics, 2020).

Each structure is given as a SMILES string.

The experiment relates to A375Pβ6 cells. Particulars: A375Pβ6, αvβ6 positive; 72 h treatment, MTT assay; ±SD, n=3. (In general: Formazan colour is commonly taken as a measure of viable cells.)

What is called IC50 is the concentration needed to halve the response being measured. A high value points to a need for much substance. Compound `COc1cc2c(cc1OCCCCCOc1cc3c(cc1OC)C(=O)N1C=C(C)C[C@H]1C=N3)N=C[C@@H]1CC(C)=CN1C2=O` [SG3199, reference compound] registered an IC50 of 0.11 ± 0.08 nM.
